Test results reported in the supplement of paper PMC11061612.

Experiments:
U-698-M [1] = assay: Bliss excess, mean over the matrix (fraction); higher = more synergy; details: U-[…], B-Cell Non-Hodgkin's Lymphoma
Procedure, shortened: (§1)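 Bliss excess equals the observed combination effect minus the expected value EA + EB − EA·EB, where EA and EB are the effects of each agent alone. Combination Emax is the second-highest inhibition within the matrix. Inhibition was scaled from CellTiter-Glo 2.0 luminescence, with 0 set by vehicle wells and 1 by blank wells, after 72 hours of two-drug dosing of cells plated in 1536-well plates.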

U-698-M [2] = assay: combination Emax (second highest fraction inhibited in the dose matrix, 72 h); higher = more inhibition; details: B-Cell Non-Hodgkin's Lymphoma
Procedure, shortened: as §1

[3] = first compound max 1 µM, partner max 1 µM, 7x7
[4] = first compound max 10 µM, partner max 0.3 µM, 7x7
[5] = first compound max 1 µM, partner max 0.3 µM, 7x7
[6] = first compound max 1 µM, partner max 10 µM, 7x7
[7] = first compound max 10 µM, partner max 10 µM, 7x7
[8] = first compound max 10 µM, partner max 1 µM
[9] = first compound max 2 µM, partner max 1 µM, 7x7
[10] = first compound max 10 µM, partner max 1 µM, 7x7

## CN(CCO)CC[C@H](CSc1ccccc1)Nc1ccc(S(=O)(=O)NC(=O)c2ccc(N3CCC([C@@H](O)c4ccccc4-c4ccc(Cl)cc4)CC3)cc2)cc1S(=O)(=O)C(F)(F)F [AZD4320] + CCN(CCO)CCCOc1ccc2c(Nc3cc(CC(=O)Nc4cccc(F)c4)[nH]n3)ncnc2c1 [AZD2811]
U-698-M [1]; [3]
  Bliss excess: -0.0275
U-698-M [2]; [3]
  combination Emax: 0.138

## COc1cc2ncnc(Nc3ccc(F)c(Cl)c3)c2cc1OCCCN1CCOCC1 [Gefitinib] + CC(C)n1c(=O)n(C)c2cnc3cc(F)c(-c4ccc(OCCCN5CCCCC5)nc4)cc3c21 [AZD1390]
U-698-M [1]; [4]
  Bliss excess: -0.0593
U-698-M [2]; [4]
  combination Emax: 0.354

## Cc1c2c(nn1C)CSCc1cc(n(C)n1)CSc1cc(c3ccccc3c1)OCCCc1c(C(=O)O)n(C)c3c-2c(Cl)ccc13 [AZD5991] + Nc1ccn([C@@H]2O[C@H](CO)[C@@H](O)C2(F)F)c(=O)n1 [Gemcitabine]
U-698-M [1]; [5]
  Bliss excess: 0.0211
U-698-M [2]; [5]
  combination Emax: 0.966

## CC1(C)CCC(CN2CCN(c3ccc(C(=O)NS(=O)(=O)c4ccc(NCC5CCOCC5)c([N+](=O)[O-])c4)c(Oc4cnc5[nH]ccc5c4)c3)CC2)=C(c2ccc(Cl)cc2)C1 [Venetoclax] + Cc1cc2ncnn2cc1Nc1ncc2c(n1)n(C1CCOCC1)c(=O)n2C [AZD7648]
U-698-M [1]; [6]
  Bliss excess: 0.041
U-698-M [2]; [6]
  combination Emax: 0.57

## CN(CCO)CC[C@H](CSc1ccccc1)Nc1ccc(S(=O)(=O)NC(=O)c2ccc(N3CCC([C@@H](O)c4ccccc4-c4ccc(Cl)cc4)CC3)cc2)cc1S(=O)(=O)C(F)(F)F [AZD4320] + Nc1ccn([C@@H]2O[C@H](CO)[C@@H](O)C2(F)F)c(=O)n1 [Gemcitabine]
U-698-M [1]; [5]
  Bliss excess: -0.0159
U-698-M [2]; [5]
  combination Emax: 0.595

## COc1cccc(OCCCN)c1-c1cc(Nc2cnc(C#N)cn2)n[nH]1 [Prexasertib] + C[C@@H]1COCCN1C2=NC(=NC(=C2)C3(CC3)[S@](=N)(=O)C)C4=C5C=CNC5=NC=C4 [AZD6738]
U-698-M [1]; [6]
  Bliss excess: -0.0348
U-698-M [2]; [6]
  combination Emax: 0.996

## C[C@@H](Nc1cc(F)cc(F)c1)c1cc(C(=O)N(C)C)cc2c(=O)cc(N3CCOCC3)oc12 [AZD8186] + CC(=O)c1c(C)c2cnc(Nc3ccc(N4CCNCC4)cn3)nc2n(C2CCCC2)c1=O [Palbociclib]
U-698-M [1]; [7]
  Bliss excess: -0.0019
U-698-M [2]; [7]
  combination Emax: 0.499

## Cn1cnc2c(F)c(Nc3ccc(Br)cc3Cl)c(C(=O)NOCCO)cc21 [Selumetinib] + C=CCn1c(=O)c2cnc(Nc3ccc(N4CCN(C)CC4)cc3)nc2n1-c1cccc(C(C)(C)O)n1 [AZD1775]
U-698-M [1]; [8]
  Bliss excess: -0.0472
U-698-M [2]; [8]
  combination Emax: 0.892

## Cc1nc(Nc2ncc(C(=O)Nc3c(C)cccc3Cl)s2)cc(N2CCN(CCO)CC2)n1 [Dasatinib] + CC(=O)Nc1cccc(-n2c(=O)n(C3CC3)c(=O)c3c(Nc4ccc(I)cc4F)n(C)c(=O)c(C)c32)c1 [Trametinib]
U-698-M [1]; [9]
  Bliss excess: -0.0131
U-698-M [2]; [9]
  combination Emax: 0.432

## Cc1c2c(nn1C)CSCc1cc(n(C)n1)CSc1cc(c3ccccc3c1)OCCCc1c(C(=O)O)n(C)c3c-2c(Cl)ccc13 [AZD5991] + C1CN(CCC1(C(=O)N[C@@H](CCO)C2=CC=C(C=C2)Cl)N)C3=NC=NC4=C3C=CN4 [Capivasertib]
U-698-M [1]; first compound max 1 µM, partner max 3 µM, 7x7
  Bliss excess: -0.0016
U-698-M [2]; first compound max 1 µM, partner max 3 µM, 7x7, may be a limit of the assay
  combination Emax: 1

## C[C@@H]1COCCN1c1cc(C2([S@](C)(=N)=O)CC2)nc(-c2ccnc3[nH]ccc23)n1 [AZD6738] + O=C(c1cc(Cc2n[nH]c(=O)c3ccccc23)ccc1F)N1CCN(C(=O)C2CC2)CC1 [Olaparib]
U-698-M [1]; [7]
  Bliss excess: -0.0503
U-698-M [2]; [7]
  combination Emax: 0.934

## Cc1cc2ncnn2cc1Nc1ncc2c(n1)n(C1CCOCC1)c(=O)n2C [AZD7648] + C[C@@H]1COCCN1C2=NC(=NC(=C2)C3(CC3)[S@](=N)(=O)C)C4=C5C=CNC5=NC=C4 [AZD6738]
U-698-M [1]; [7]
  Bliss excess: -0.0006
U-698-M [2]; [7]
  combination Emax: 0.939

## CS(=O)(=O)CCNCc1ccc(-c2ccc3ncnc(Nc4ccc(OCc5cccc(F)c5)c(Cl)c4)c3c2)o1 [Lapatinib] + NC1(c2ccc(-c3nc4ccn5c(=O)[nH]nc5c4cc3-c3ccccc3)cc2)CCC1 [MK-2206]
U-698-M [1]; [7]
  Bliss excess: 0.0097
U-698-M [2]; [7]
  combination Emax: 0.905

## Cc1cc2ncnn2cc1Nc1ncc2c(n1)n(C1CCOCC1)c(=O)n2C [AZD7648] + O=C(c1cc(Cc2n[nH]c(=O)c3ccccc23)ccc1F)N1CCN(C(=O)C2CC2)CC1 [Olaparib]
U-698-M [1]; [7]
  Bliss excess: -0.0409
U-698-M [2]; [7]
  combination Emax: 0.343

## O=C(c1cc(Cc2n[nH]c(=O)c3ccccc23)ccc1F)N1CCN(C(=O)C2CC2)CC1 [Olaparib] + COc1nnc2ccc(N3CCC(c4ccc(OCCN5CCN(C)C(=O)[C@H]5C)cc4)CC3)nn12 [AZD5153]
U-698-M [1]; [10]
  Bliss excess: -0.0374
U-698-M [2]; [10]
  combination Emax: 0.578

## COc1nnc2ccc(N3CCC(c4ccc(OCCN5CCN(C)C(=O)[C@H]5C)cc4)CC3)nn12 [AZD5153] + Cc1c2c(nn1C)CSCc1cc(n(C)n1)CSc1cc(c3ccccc3c1)OCCCc1c(C(=O)O)n(C)c3c-2c(Cl)ccc13 [AZD5991]
U-698-M [1]; [3]
  Bliss excess: -0.0271
U-698-M [2]; [3]
  combination Emax: 0.998

## CC1(C)CCC(CN2CCN(c3ccc(C(=O)NS(=O)(=O)c4ccc(NCC5CCOCC5)c([N+](=O)[O-])c4)c(Oc4cnc5[nH]ccc5c4)c3)CC2)=C(c2ccc(Cl)cc2)C1 [Venetoclax] + CS(=O)(=O)CCNCc1ccc(-c2ccc3ncnc(Nc4ccc(OCc5cccc(F)c5)c(Cl)c4)c3c2)o1 [Lapatinib]
U-698-M [1]; [6]
  Bliss excess: -0.0151
U-698-M [2]; [6]
  combination Emax: 0.503

## Cc1cc2ncnn2cc1Nc1ncc2c(n1)n(C1CCOCC1)c(=O)n2C [AZD7648] + C=CCn1c(=O)c2cnc(Nc3ccc(N4CCN(C)CC4)cc3)nc2n1-c1cccc(C(C)(C)O)n1 [AZD1775]
U-698-M [1]; [8]
  Bliss excess: -0.0156
U-698-M [2]; [8]
  combination Emax: 0.971

## C[C@@H](Nc1cc(F)cc(F)c1)c1cc(C(=O)N(C)C)cc2c(=O)cc(N3CCOCC3)oc12 [AZD8186] + C1CN(CCC1(C(=O)N[C@@H](CCO)C2=CC=C(C=C2)Cl)N)C3=NC=NC4=C3C=CN4 [AZD5363]
U-698-M [1]; [7]
  Bliss excess: -0.0592
U-698-M [2]; [7]
  combination Emax: 0.349

## COc1cccc(OCCCN)c1-c1cc(Nc2cnc(C#N)cn2)n[nH]1 [Prexasertib] + CN(C)CCCOc1ccc(-c2ccc3ncc4c(c3c2)n(C2CCOCC2)c(=O)n4C)cn1 [AZD0156]
U-698-M [1]; [3]
  Bliss excess: 0.0361
U-698-M [2]; first compound max 1 µM, partner max 1 µM, 7x7, may be a limit of the assay
  combination Emax: 1

## COc1nnc2ccc(N3CCC(c4ccc(OCCN5CCN(C)C(=O)[C@H]5C)cc4)CC3)nn12 [AZD5153] + CCN(CCO)CCCOc1ccc2c(Nc3cc(CC(=O)Nc4cccc(F)c4)[nH]n3)ncnc2c1 [AZD2811]
U-698-M [1]; [3]
  Bliss excess: -0.0563
U-698-M [2]; [3]
  combination Emax: 0.673

## Cc1c2c(nn1C)CSCc1cc(n(C)n1)CSc1cc(c3ccccc3c1)OCCCc1c(C(=O)O)n(C)c3c-2c(Cl)ccc13 [AZD5991] + Cc1cc2ncnn2cc1Nc1ncc2c(n1)n(C1CCOCC1)c(=O)n2C [AZD7648]
U-698-M [1]; [6]
  Bliss excess: 0.0183
U-698-M [2]; first compound max 1 µM, partner max 10 µM, 7x7, may be a limit of the assay
  combination Emax: 1

## NC1(C(=O)N[C@@H](CCO)c2ccc(Cl)cc2)CCN(c2ncnc3[nH]ccc23)CC1 [Capivasertib] + CCN(CCO)CCCOc1ccc2c(Nc3cc(CC(=O)Nc4cccc(F)c4)[nH]n3)ncnc2c1 [AZD2811]
U-698-M [1]; [10]
  Bliss excess: -0.0021
U-698-M [2]; [10]
  combination Emax: 0.5

## N#Cc1cnc(Nc2cc(NC[C@H]3CNCCO3)c(C(F)(F)F)cn2)cn1 [SRA737] + Nc1ccn([C@@H]2O[C@H](CO)[C@@H](O)C2(F)F)c(=O)n1 [Gemcitabine]
U-698-M [1]; [4]
  Bliss excess: 0.111
U-698-M [2]; [4]
  combination Emax: 0.916

## CC(=O)c1c(C)c2cnc(Nc3ccc(N4CCNCC4)cn3)nc2n(C2CCCC2)c1=O [Palbociclib] + CC1(C)CCC(CN2CCN(c3ccc(C(=O)NS(=O)(=O)c4ccc(NCC5CCOCC5)c([N+](=O)[O-])c4)c(Oc4cnc5[nH]ccc5c4)c3)CC2)=C(c2ccc(Cl)cc2)C1 [Venetoclax]
U-698-M [1]; [10]
  Bliss excess: -0.0676
U-698-M [2]; [10]
  combination Emax: 0.548

## Cc1cc2ncnn2cc1Nc1ncc2c(n1)n(C1CCOCC1)c(=O)n2C [AZD7648] + CN(C)CCCOc1ccc(-c2ccc3ncc4c(c3c2)n(C2CCOCC2)c(=O)n4C)cn1 [AZD0156]
U-698-M [1]; [10]
  Bliss excess: 0.0015
U-698-M [2]; [10]
  combination Emax: 0.488

## Cn1cnc2c(F)c(Nc3ccc(Br)cc3Cl)c(C(=O)NOCCO)cc21 [Selumetinib] + C[C@@H]1COCCN1C2=NC(=NC(=C2)C3(CC3)[S@](=N)(=O)C)C4=C5C=CNC5=NC=C4 [AZD6738]
U-698-M [1]; [7]
  Bliss excess: -0.0501
U-698-M [2]; [7]
  combination Emax: 0.766
